Measurements reported in US20190300824A1, “BACTERIAL SPORE COMPOSITIONS FOR […]” (priority 2014, published 2019).
Bridge positions count the residues as written; N and C are the ends. Square brackets hold non-standard residues; d marks the D form. Peptide text beside a SMILES is read from it. * marks the point of attachment. Ileψ(thiazoline)Cys = CC[C@H](C)[C@H](N)C1=N[C@H](C(=O)*)CS1; dOrn = NCCC[C@@H](N)C(=O)O

Tested on: Eimeria maxima and Clostridium perfringens
Type: in vivo, Cobb 500 Chicks (Gallus gallus domesticus)
Conditions: in words

## CC[C@H](C)[C@H](N)C1=N[C@H](C(=O)N[C@@H](CC(C)C)C(=O)N[C@H](CCC(=O)O)C(=O)N[C@H](C(=O)N[C@H]2CCCCNC(=O)[C@H](CC(N)=O)NC(=O)[C@@H](CC(=O)O)NC(=O)[C@H](Cc3cnc[nH]3)NC(=O)[C@@H](Cc3ccccc3)NC(=O)[C@H]([C@@H](C)CC)NC(=O)[C@@H](CCCN)NC2=O)[C@@H](C)CC)CS1 [Treatment Group 5, Bacitracin] ({Ileψ(thiazoline)Cys}-L[dE]IK[dOrn]I[dF]H[dD]N; lactam 4-C)
  weight gain over the infected negative control: significant increase in weight gain
